This note sets out measurements from ChEMBL document CHEMBL4725292 (J Med Chem, 2020).

One test has as its system B cell. In words: Downregulation of IL-17A secretion in human B cells cocultured with human PBMC at 0.37 to 10 uM preincubated for 1 hr followed by anti-IgM and TCR stimulation and measured after 84 hrs by ELISA. It is filed as functional, cell-based. Conditions: dose microM 0.37-10, time 1.0 hrs.
In test [1] the target is Bromodomain-containing protein 2 (Homo sapiens, UniProt P25440). As to the kind of experiment: Binding affinity to human partial length BRD2 bromodomain 1 long isoform (K71 to N194 residues) expressed in bacterial expression system by BROMOscan assay.
In test [2] the target is T1, Transcription intermediary factor 1-alpha (Homo sapiens, UniProt O15164).
T1 sequence (O15164 whole entry): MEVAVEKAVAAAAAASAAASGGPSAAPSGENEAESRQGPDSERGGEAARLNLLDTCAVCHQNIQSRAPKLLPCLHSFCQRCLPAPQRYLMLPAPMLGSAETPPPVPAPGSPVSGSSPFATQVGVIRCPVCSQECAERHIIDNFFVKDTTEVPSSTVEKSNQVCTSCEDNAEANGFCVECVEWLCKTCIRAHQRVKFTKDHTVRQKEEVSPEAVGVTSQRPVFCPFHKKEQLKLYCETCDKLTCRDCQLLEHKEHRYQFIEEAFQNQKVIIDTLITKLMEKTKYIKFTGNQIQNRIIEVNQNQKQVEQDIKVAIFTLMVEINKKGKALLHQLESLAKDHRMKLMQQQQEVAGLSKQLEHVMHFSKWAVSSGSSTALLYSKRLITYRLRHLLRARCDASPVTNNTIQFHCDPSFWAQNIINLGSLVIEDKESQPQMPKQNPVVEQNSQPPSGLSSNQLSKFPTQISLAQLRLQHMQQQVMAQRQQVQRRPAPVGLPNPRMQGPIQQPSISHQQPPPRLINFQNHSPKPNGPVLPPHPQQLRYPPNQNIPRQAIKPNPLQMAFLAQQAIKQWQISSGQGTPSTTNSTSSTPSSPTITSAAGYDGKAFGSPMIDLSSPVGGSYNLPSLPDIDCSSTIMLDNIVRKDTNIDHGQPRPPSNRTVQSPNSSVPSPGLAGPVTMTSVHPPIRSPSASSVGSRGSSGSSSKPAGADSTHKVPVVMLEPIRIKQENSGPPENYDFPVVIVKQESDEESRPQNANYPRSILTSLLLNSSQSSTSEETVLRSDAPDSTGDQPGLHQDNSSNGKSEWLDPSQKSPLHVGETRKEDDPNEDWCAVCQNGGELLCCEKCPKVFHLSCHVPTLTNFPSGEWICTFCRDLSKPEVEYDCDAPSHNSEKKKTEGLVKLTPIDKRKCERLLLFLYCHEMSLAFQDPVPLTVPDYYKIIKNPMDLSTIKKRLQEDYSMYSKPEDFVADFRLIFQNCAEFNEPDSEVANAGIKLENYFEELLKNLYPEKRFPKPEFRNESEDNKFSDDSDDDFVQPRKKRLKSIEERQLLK
As to the kind of experiment: Binding affinity to human partial length TRIM24 (P790 to P977 residues) expressed in bacterial expression system by BROMOscan assay.

Test [3] has as its target T2, Bromodomain testis-specific protein (Homo sapiens, UniProt Q58F21). As to the kind of experiment: Binding affinity to human partial length BRDT bromodomain 2 (K250 to E382 residues) expressed in bacterial expression system by bromoscan assay.
The target of test [4] is T2, Bromodomain testis-specific protein. As to the kind of experiment: Binding affinity to human partial length BRDT bromodomain 1 (N21 to E137 residues) expressed in bacterial expression system by bromoscan assay.
For test [5], the target named is Bromodomain-containing protein 3 (Homo sapiens, UniProt Q15059). In words: Binding affinity to human partial length BRD3 bromodomain 1 (P24 to E144 residues) expressed in bacterial expression system by BROMOscan assay.
The target in test [6] is T3, ATPase family AAA domain-containing protein 2B (Homo sapiens, UniProt Q9ULI0).
T3 sequence (Q9ULI0 whole entry): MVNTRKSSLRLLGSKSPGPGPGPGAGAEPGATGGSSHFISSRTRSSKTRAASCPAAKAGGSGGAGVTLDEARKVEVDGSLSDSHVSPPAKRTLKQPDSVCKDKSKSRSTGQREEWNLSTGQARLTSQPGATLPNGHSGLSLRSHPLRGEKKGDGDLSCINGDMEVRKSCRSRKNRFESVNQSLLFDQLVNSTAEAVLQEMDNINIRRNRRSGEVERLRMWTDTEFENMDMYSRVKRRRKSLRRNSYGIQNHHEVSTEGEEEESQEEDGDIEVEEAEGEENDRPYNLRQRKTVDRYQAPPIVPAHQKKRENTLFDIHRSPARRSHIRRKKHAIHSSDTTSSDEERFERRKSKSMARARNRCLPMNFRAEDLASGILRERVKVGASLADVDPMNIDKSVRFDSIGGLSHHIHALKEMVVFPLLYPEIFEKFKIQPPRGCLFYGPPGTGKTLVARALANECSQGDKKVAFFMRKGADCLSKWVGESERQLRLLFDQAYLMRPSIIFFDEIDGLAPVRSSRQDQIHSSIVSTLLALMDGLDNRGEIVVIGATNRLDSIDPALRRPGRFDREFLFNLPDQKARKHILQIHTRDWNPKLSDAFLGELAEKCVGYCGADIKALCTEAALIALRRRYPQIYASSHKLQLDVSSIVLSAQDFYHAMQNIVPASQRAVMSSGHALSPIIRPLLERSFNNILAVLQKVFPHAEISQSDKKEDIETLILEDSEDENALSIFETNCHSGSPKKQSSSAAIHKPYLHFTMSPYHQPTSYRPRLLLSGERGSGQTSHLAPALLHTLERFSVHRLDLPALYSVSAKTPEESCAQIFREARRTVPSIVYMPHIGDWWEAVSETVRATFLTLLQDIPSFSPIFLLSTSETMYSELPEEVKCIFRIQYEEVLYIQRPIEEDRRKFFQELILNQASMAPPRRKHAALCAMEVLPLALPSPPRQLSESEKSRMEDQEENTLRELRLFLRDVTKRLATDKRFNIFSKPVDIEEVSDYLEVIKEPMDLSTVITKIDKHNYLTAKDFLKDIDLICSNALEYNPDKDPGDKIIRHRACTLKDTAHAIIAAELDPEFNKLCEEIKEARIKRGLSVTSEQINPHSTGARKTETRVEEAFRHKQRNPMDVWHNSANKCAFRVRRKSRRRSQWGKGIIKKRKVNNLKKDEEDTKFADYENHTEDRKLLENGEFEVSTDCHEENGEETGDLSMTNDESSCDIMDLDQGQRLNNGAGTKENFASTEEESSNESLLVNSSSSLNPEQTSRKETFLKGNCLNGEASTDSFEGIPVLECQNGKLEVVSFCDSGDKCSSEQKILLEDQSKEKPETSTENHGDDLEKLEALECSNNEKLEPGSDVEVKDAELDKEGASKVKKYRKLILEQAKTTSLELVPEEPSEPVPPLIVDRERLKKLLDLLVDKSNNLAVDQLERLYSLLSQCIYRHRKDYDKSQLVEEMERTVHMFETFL
In words: Binding affinity to human partial length ATAD2B (Q955 to R1082 residues) expressed in bacterial expression system by BROMOscan assay.

A short description of test [7]: Inhibition of LPS-induced MCP1 production in PBMC (unknown origin). Format: functional, tissue-based.

Activity calls are given as the source filed them. The rule behind the calls is not given here.

Bromodomain-containing protein 2, sequence (P25440 whole entry, the tested form may be a part, canonical isoform): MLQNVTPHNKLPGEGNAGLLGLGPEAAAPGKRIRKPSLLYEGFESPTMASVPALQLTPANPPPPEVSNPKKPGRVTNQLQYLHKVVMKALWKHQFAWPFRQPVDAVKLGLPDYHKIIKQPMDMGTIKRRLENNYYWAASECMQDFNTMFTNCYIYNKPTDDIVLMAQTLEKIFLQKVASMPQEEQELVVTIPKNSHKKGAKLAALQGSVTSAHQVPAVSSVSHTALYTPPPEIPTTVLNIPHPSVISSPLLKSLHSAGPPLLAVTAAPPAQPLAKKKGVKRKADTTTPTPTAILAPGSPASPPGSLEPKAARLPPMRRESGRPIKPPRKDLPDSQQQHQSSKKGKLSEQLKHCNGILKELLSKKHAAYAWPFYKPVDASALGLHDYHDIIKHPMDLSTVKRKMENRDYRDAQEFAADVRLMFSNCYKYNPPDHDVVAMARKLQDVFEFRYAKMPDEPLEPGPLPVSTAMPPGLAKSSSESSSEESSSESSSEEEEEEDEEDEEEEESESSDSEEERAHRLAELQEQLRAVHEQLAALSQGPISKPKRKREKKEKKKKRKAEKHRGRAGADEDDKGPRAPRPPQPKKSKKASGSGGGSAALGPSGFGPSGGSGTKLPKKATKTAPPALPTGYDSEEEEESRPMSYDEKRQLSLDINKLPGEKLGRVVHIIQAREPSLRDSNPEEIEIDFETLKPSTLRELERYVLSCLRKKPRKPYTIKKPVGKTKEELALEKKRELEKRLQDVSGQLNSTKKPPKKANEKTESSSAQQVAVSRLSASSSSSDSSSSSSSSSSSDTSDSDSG
Bromodomain-containing protein 3, sequence (Q15059 whole entry, the tested form may be a part): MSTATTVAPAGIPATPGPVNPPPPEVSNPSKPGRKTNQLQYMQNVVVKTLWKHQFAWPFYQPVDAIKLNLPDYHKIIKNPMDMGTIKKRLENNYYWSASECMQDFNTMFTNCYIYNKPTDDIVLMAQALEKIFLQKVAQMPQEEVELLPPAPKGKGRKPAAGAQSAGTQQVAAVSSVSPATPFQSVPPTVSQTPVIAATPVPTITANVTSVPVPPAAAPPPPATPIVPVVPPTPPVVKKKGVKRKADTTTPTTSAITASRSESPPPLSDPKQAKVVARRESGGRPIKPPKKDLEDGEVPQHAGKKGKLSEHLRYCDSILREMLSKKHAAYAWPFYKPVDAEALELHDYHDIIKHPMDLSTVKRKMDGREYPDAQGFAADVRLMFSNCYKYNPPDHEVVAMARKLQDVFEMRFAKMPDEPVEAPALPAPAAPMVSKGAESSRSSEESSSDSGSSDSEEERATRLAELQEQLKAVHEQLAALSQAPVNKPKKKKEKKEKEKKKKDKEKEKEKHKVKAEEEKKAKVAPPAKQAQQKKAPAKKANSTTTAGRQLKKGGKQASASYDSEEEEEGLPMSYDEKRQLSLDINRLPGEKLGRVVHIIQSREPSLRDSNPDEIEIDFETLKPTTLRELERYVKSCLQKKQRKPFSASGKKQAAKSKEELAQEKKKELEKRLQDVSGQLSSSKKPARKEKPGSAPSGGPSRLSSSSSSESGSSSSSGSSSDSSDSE

One may read the Kd as the free concentration of one partner at which half of the binding sites on the other are occupied at equilibrium, for simple one-to-one binding. Low values mean tighter binding, high ones weaker binding. In general, IC50 refers to the concentration that inhibits the measured activity by half. High values mean weaker potency, low ones greater potency. As for `Cc1cc2c(-c3ccco3)cnc(N[C@@H]3CCN(C)C[C@H]3C(=O)NC3CCCCC3)c2[nH]c1=O` [GSK789], the outcome in the test with B cell was Active. Moreover, the Kd was 20 nM in test [1]; 20000 nM in test [2]; 20000 nM in test [3]; 20 nM in test [4]; 15.8 nM in test [5]; 15800 nM in test [6]. This compound showed an IC50 in test [7] of 20 nM.
